This note sets out measurements from patent EP0794786B1, “THE USE OF INOSITOLTRI[…] THE PREPARING OF MEDICAMENTS” (Bioneris AB,, priority 1994, dated 1996).

What all share (assay type): in vivo
For one series, the system named is glioma tumor tissue. Put plainly: Glioma tumor growth in mice after subcutaneous inoculation of rat glial cells, IP3 via osmotic minipumps. As to the method:
Rat glial cells were grown in a stationary suspension culture in a medium supplemented with 15 % heat inactivated horse serum and 2.5 % heat inactivated fetal calf serum in a 5 % CO2 humidified atmosphere at 37°C.
The cells were harvested using trypsine solution and the concentration of cells were measured. The cells were centrifuged and resuspended to a concentration of 1 million cells/ml.
Twelve female specific pathogen free mice at an age of 12 weeks (weighing 20-25 g) were maintained in autoclaved cages with filter tops in horizontal air flow cabiners in a unit equipped with specific filters. Autoclaved bedding, irradiated feed and sterile water was used. The temperature and humidity was kept constant at 22 ± 2°C, 65 ± 5 % relative humidity.
To each animal 0.1 ml of the cellsuspension was inoculated subcutanousely in the right flank at day 0.
After five days, osmotic minipumps (ALZET) were surgically placed subcutanously into 7 animals, while 5 animals, shamoperated, served as a control group.
Each minipump contained approximately 200 µl of a solution of 1.0 g/2,5 ml of the sodium salt of 1-D-myo-inositol-1,2,6-trisphosphate (IP3). The minipumps gave a continous dosage of IP3 for 14 days.
The injection of glioma cells into the animals cause a growth of tumors. The growth of the tumors was examined by measuring two diameters along two perpendicular axes. The true tumor diameter was estimated as the diameter minus 0.5 mm (which is the thickness of the skin). Tumor area (A) was calculated by multiplying the two true diameters and tumor volume was calculated by the formula: /6 x A^3/2 x 0.67.

Another series relates to prostate tumor tissue. Put plainly: Prostate tumor growth in mice after subcutaneous injection of a specific cell type, IP3 via osmotic minipumps. From the text: In a procedure similar to the one described in example 2 prostate tumor growth was induced by subcutanous injection of a specific cell type to mice. One group of animals received IP3 via osmotic minipumps while another group of animals served as a control.

Series [1] concerns Lewis lung carcinoma cells (ATCC CRL-1642). Put plainly: Lewis lung carcinoma experiment in mice: lung weight and histological angiogenesis. Here is the method: Lewis lung carcinoma cells (ATCC CRL-1642) were grown as a suspension culture in a medium with 4.5 g/l glucose with 10 % heat inactivated bovine serum in a 5 % CO2 humidified atmosphere at 37°C. The cells were subcultured by diluting cell suspensions 1:6. After harvesting by centrifugation and resuspension, the cells were counted in a counting chamber. The cells were resuspended with medium to a concentration of 10 million cells/ml.
Ten male specific pathogen free mice at an age of 6 weeks were maintained in autoclaved caves with filter tops in a barrier unit equipped with HEPA filters. Autoclaved bedding, irradiated feed and sterile filtered water was used. The temperature and humidity was kept constant (22 ± 2°C, 65 ± 5 % RH).
To each animal 0.1 ml of the cell suspension was inoculated subcutanousely in the right flank at day 0. After 15 days, osmotic minipumps (ALZET) were surgically placed subcutaneously into 5 animals while another 5 animals, sham operated, served as a control group.
Each minipump contained 226 µl of a solution of 0.4 g/ml of the sodium salt of 1-D-myo-inositol-1,2,6-trisphosphate (IP3). The minipumps gave a continous dosage of IP3 for 6 days.
The injection of lung carcinoma cells cause a formation of tumors and angiogenesis in lung tissue. The weight of the lungs after the experiment is considered as a measurement of the amount of tumor tissue which is formed.

A short description of series [2]: Toxicity after intraperitoneal injection to mice. Particulars: 160 mg/kg body weight by intraperitoneal injection to mice.

SMILES strings stand for the structures.

Turning to `O=P(O)(O)O[C@@H]1[C@H](OP(=O)(O)O)[C@H](O)[C@@H](O)[C@H](O)[C@H]1OP(=O)(O)O` [IP3, D-myo-inositol-1,2,6-trisphosphate], the Tumor volume is on record as 0 mm^3 with glioma tumor tissue (Day 0 (inoculation; minipumps placed after five days)); 115 mm^3 in the series with glioma tumor tissue (Day 10, sodium salt of IP3 1.0 g/2,5 ml, approx. 200 µl minipump s.c. from day 5, continuous for 14 days); 270 mm^3 in the series with glioma tumor tissue (Day 13, minipump s.c. from day 5, continuous for 14 days); 620 mm^3 with glioma tumor tissue (Day 15, minipump s.c. from day 5, continuous for 14 days); 880 mm^3 with glioma tumor tissue (Day 17, minipump s.c. from day 5, continuous for 14 days); 2420 mm^3 in the series with glioma tumor tissue (Day 20, minipump s.c. from day 5, continuous for 14 days). Further, the Tumor volume in the series on prostate tumor tissue (Day 0) was 0 mm^3; in the series on prostate tumor tissue (Day 7) it was 36 mm^3; in the series on prostate tumor tissue (Day 10) it was 62 mm^3; in the series with prostate tumor tissue (Day 17), 51 mm^3; in the series with prostate tumor tissue (Day 24), 95 mm^3; in the series with prostate tumor tissue (Day 28) it was 171 mm^3. The molecule also gave a Tumor volume with prostate tumor tissue (Day 35) of 215 mm^3. Further, the “angiogenesis (histological examination)” value in series [1] (IP3 minipump s.c. after 15 days, for 6 days, compared with sham operated animals) is on record as “lower angiogenesis”. Moreover, in series [1] (sodium salt of IP3 0.4 g/ml, 226 µl minipump s.c. after 15 days, continuous for 6 days, sham operated animals 0.312 g), the mean lung weight is reported as 0.198 g. The toxic effects entry in series [2] is recorded as “no toxic effects”.
